# Tests used:
# HCV replicon = HCV replicon FRET assay (HCV RdRp cell line); format: cell-based; details: Hepatitis C virus, read-out: RdRp Inhibition Range, EC50
# Source text: FRET Assay Preparation. To perform the HCV FRET screening assay, 96-well cell culture plates were used. The FRET peptide (Anaspec, Inc.) (Taliani et al., Anal. Biochem. 240:60-67 (1996), expressly incorporated by reference in its entirety) contains a fluorescence donor, EDANS, near one end of the peptide and an acceptor, DABCYL, near the other end. The fluorescence of the peptide is quenched by […] resonance energy transfer (RET) between the donor and the acceptor, but as the NS3 protease cleaves the peptide the products are released from RET quenching and the fluorescence of the donor becomes apparent. […]
# FRET Assay and Cytotoxicity Assay. […] After reading in a Cytoflour 4000 instrument (PE Biosystems), plates were rinsed with PBS and then used for FRET assay by the addition of 30 ul of the FRET peptide assay reagent described above (FRET Assay Preparation) per well. The plate was then placed into the Cytoflour 4000 instrument which had been set to 340 excite/490 emission, automatic mode for 20 cycles and the plate read in a kinetic mode. Typically, the signal to noise using an endpoint analysis after the reads was at least three-fold.
# Compound analysis was determined by quantification of the relative HCV replicon inhibition and the relative cytotoxicity values. […]
# [1] = target: T1, HCV NS5B RdRp genotype 1b (Hepatitis C virus genotype 1b, UniProt Q9WMX2); test: HCV NS5B RdRp enzyme assay; format: biochemical; details: HCV RdRp genotype 1b enzyme; read-out: RdRp Inhibition Range, IC50
# T1 construct: The protein was expressed with an 18 amino acid C-terminal truncation to enhance the solubility; made in house; host or cells: E. coli BL21(DE3)
# Method: HCV NS5B RdRp cloning, expression, and purification. The cDNA encoding the NS5B protein of HCV, genotype 1b, was cloned into the pET21a expression vector. The protein was expressed with an 18 amino acid C-terminal truncation to enhance the solubility. The E. coli competent cell line BL21(DE3) was used for expression of the protein. Cultures were grown at 37° C. for ˜4 hours until the cultures reached an optical density of 2.0 at 600 nm. The cultures were cooled to 20° C. and induced with 1 mM IPTG. Fresh ampicillin was added to a final concentration of 50 μg/ml and the cells were grown overnight at 20° C.
# Cell pellets (3 L) were lysed for purification to yield 15-24 mgs of purified NS5B. The lysis buffer consisted of 20 mM Tris-HCl, pH 7.4, 500 mM NaCl, 0.5% triton X-100, 1 mM DTT, 1 mM EDTA, 20% glycerol, 0.5 mg/ml lysozyme, 10 mM MgCl2, 15 ug/ml deoxyribonuclease I, and Complete TM protease inhibitor tablets (Roche). After addition of the lysis buffer, frozen cell pellets were resuspended using a tissue homogenizer. To reduce the viscosity of the sample, aliquots of the lysate were sonicated on ice using a microtip attached to a Branson sonicator. The sonicated lysate was centrifuged at 100,000×g for 1 hr at 4° C. and filtered through a 0.2 μm filter unit (Corning). […]
# HCV NS5B RdRp enzyme assay. […] Plates were read on a Packard Top Count NXT. […]
# T1 sequence (Q9WMX2 2420-2992): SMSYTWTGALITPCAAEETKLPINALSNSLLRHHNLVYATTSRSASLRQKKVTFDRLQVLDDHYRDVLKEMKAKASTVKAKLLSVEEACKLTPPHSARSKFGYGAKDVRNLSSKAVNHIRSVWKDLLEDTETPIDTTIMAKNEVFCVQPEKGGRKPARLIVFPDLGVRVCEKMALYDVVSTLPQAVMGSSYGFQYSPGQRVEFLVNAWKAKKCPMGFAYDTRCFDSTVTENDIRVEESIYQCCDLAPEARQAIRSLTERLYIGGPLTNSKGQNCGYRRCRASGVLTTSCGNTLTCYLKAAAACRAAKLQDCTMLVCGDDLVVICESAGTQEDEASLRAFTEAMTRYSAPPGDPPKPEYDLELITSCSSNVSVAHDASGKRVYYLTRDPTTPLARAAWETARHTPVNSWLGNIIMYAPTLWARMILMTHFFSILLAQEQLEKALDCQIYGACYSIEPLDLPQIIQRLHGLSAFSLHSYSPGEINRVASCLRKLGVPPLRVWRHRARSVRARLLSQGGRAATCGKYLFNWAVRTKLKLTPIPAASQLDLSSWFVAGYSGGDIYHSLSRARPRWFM
Compound,EC50 (HCV replicon) [µM],IC50 [1] [µM]
Cn1c(-c2ccoc2)c(C2CCCCC2)c2ccc(-c3nnn[nH]3)cc21 [Compound 2],5 to 10,0.1 to 1
Cn1c(-c2ccoc2)c(C2CCCCC2)c2ccc(C(=O)Nc3nnn[nH]3)cc21 [Compound 1],< 5,0.1 to 1

# — US20050119318A1, “Inhibitors of HCV replication” (priority 2003, published 2005)
